Values of other authors in patent US20070072940A1, “Use of quinol derivatives thereof for cosmetic, dietary supplement or pharmaceutical compositions and compositions thereby obtained” (priority 2005, published 2007).

Key:
S. aureus = conditions: in vitro
fibrin = conditions: through an action on the polymerization of fibrin
B. subtilis = conditions: in vitro
[1] = test system: lipid peroxidation in liposomes
[2] = test system: low density lipoprotein lipids
[3] = results combined with previous research
[4] = test system: nutritional muscular dystrophy
[5] = test system: skin trauma such as bruising or blemishes; conditions: applied topically

## Menaquinol
Free radical
  free radical scavenging ability, comparison: greater than that of alpha tocopherol quinol, plastoquinol, and alpha tocopherol

## C/C(=C\Cc1c(C)c(O)c2ccccc2c1O)CCC[C@H](C)CCC[C@H](C)CCCC(C)C [Phylloquinol]
Free radical
  free radical scavenging ability, comparison: greater than that of alpha tocopherol quinol, plastoquinol, and alpha tocopherol

## CC(C)=CCC/C(C)=C/CC/C(C)=C/CC/C(C)=C/CC/C(C)=C/CC/C(C)=C/CC/C(C)=C/CC/C(C)=C/CC/C(C)=C/Cc1cc(O)c(C)c(C)c1O [Plastoquinol]
Free radical
  free radical scavenging ability, comparison: greater than that of ubiquinol and alpha tocopherol

## Cc1c(C)c2c(c(C)c1OP(=O)(O)O)CC[C@@](C)(CCC[C@H](C)CCC[C@H](C)CCCC(C)C)O2 [DL alpha tocopherol phosphate]
S. aureus
  antimicrobial action on S. aureus: antimicrobial action
fibrin
  anticoagulant action: anticoagulant action
B. subtilis
  antimicrobial action on B. subtilis: antimicrobial action

## Cc1c(C)c(O)c(CC[C@](C)(O)CCC[C@H](C)CCC[C@H](C)CCCC(C)C)c(C)c1O [alpha tocopherol quinol]
[1]
  inhibition of lipid peroxidation: shown to inhibit lipid peroxidation
[1]; liposomes, compared with alpha tocopherol quinone
  inhibition of lipid peroxidation in liposomes, comparison: superior inhibition of lipid peroxidation in liposomes
[2]
  interception of aqueous peroxyl radicals: directly intercepted aqueous peroxyl radicals
[2]; associated with LDL
  reduction of lipoprotein ubiquinone to ubiquinol: instantaneously reduce the lipoprotein ubiquinone to ubiquinol
[2]; in oxidizing LDL
  quenching of alpha tocopheroxyl radicals: rapidly quenched alpha tocopheroxyl radicals
[2]; in vitro
  inhibition of radical initiated oxidation of low density lipoprotein lipids: efficient multifunctional inhibitor
[3]
  toxicity: non-toxic
Free radical
  free radical scavenging ability, comparison: greater than that of ubiquinol and alpha tocopherol
[4]; rabbit, injectable and oral
  prevention and treatment of nutritional muscular dystrophy: could prevent and treat nutritional muscular dystrophy
[4]; vitamin E deficiency
  prevention of creatinuria and loss of weight caused by vitamin E deficiency: could prevent creatinuria and loss of weight

## CC1=C(C)C(=O)C(CC[C@](C)(O)CCC[C@H](C)CCC[C@H](C)CCCC(C)C)=C(C)C1=O [alpha tocopherol quinone]
[1]
  inhibition of lipid peroxidation: shown to inhibit lipid peroxidation
[3]
  toxicity: non-toxic

## CC1=C(C/C=C(\C)CCC[C@H](C)CCC[C@H](C)CCCC(C)C)C(=O)c2ccccc2C1=O [Vitamin K, Phytonadione]
[5]
  reduction of severity of skin trauma: ability to reduce the severity of skin trauma
